Laboratory results reported in patent US12428378B2, “Methods and materials for increasing level of phosphorylated AMPK protein” (University of Pittsburgh—Of the Commonwealth System of …, priority 2019, dated 2025).

What follows are compounds tested on pAMPK (assay: pAMPK immunostaining chemiluminescence assay in Beas2B cells). Conditions: Homo sapiens, BEAS-2B, 18 h, DMEM no glucose media, compounds 3-34, 36-44, 47-60 tested as HCl salts, read-out: efficacy (minimal compound concentration needed to increase pAMPK by 30%).
Assay type: cell-based
Protocol: Beas2B cells were plated in 384 white nunc plate (4000 cells per well) for overnight. Compounds were serially diluted in DMEM no glucose media using the liquid handler. Cells were washed once using Biotek EL406 before compound addition for additional 18 hours. Cells were washed and fixed with PFA before immunostained with pAMPK primary antibody and anti-Rabbit HRP secondary antibody. Finally, 25 μl of ECL reagent will be added to cells, and chemical luminescence signal will be counted using plate reader. Compounds efficacies (μM) were determined by the minimal compound concentration needed to increase pAMPK by 30%. Activity: “+” equals >10 μM; “++” equals between ≤10 μM and >1 μM; and “+++” equals ≤1 μM.

Row | SMILES | EC (30% increase) [µM]
1 | Cc1ccccc1CN(CCCOc1ccc(C(F)(F)F)cc1)Cc1ccnnc1 [compound 182] | ≤ 1
2 | [2H]C(C)(c1cccnc1)N(Cc1ccccc1C)CC(O)COc1ccc(C(F)(F)F)cc1 (centres unmarked) [compound 177] | > 10
3 | OC(COc1ccc(C(F)(F)F)cc1)CN1Cc2ccccc2C[C@H]1c1cccnc1 (some centres unmarked) [compound 132] | ≤ 1
4 | Cc1ccccc1CN(Cc1nccn1C)CC(O)COc1ccc(C(F)(F)F)cc1 (centres unmarked) [compound 72] | ≤ 1
5 | FC(F)(F)c1ccc(OCCCN2Cc3ccccc3CC2c2cccnc2)cc1 (centres unmarked) [compound 65] | ≤ 1
6 | Cc1ccccc1CN(CC(O)COc1ccc(C(F)(F)F)cc1)C(=O)c1c[nH]cn1 (centres unmarked) [compound 74] | 1 to 10
7 | OC(COc1ccc(C(F)(F)F)cc1)CN1Cc2ccccc2C[C@@H]1c1cccnc1 (some centres unmarked) [compound 129] | ≤ 1
8 | OC(COc1ccc(C(F)(F)F)cc1)CN(CC1CCCCC1)CC1CCCCC1 (centres unmarked) [compound 3] | 1 to 10
9 | OC(COc1ccc(C(F)(F)F)cc1)CN1Cc2ccccc2CC1c1ccccc1 (centres unmarked) [compound 20] | 1 to 10
10 | OC(COc1ccc(C(F)(F)F)cc1)CN(Cc1cccnc1)Cc1ccccc1Cl (centres unmarked) [compound 25] | ≤ 1
11 | OC(COc1ccc(C(F)(F)F)cc1)CN1CCc2ccccc2C1c1cncs1 (centres unmarked) [compound 93] | 1 to 10
12 | Cc1ccccc1CN(Cc1cnc[nH]1)CC(O)COc1ccc(C(F)(F)F)cc1 (centres unmarked) [compound 39] | 1 to 10
13 | Cn1ccnc1CN(CCCOc1ccc(C(F)(F)F)cc1)Cc1ccccc1Cl [compound 106] | ≤ 1
14 | [2H]C(C)(c1cccnc1)N(Cc1ccccc1Cl)CC(O)COc1ccc(C(F)(F)F)cc1 (centres unmarked) [compound 163] | > 10
15 | Cc1ccccc1CN(Cc1ccc[n+]([O-])c1)CC(O)COc1ccc(C(F)(F)F)cc1 (centres unmarked) [compound 51] | 1 to 10
16 | Cc1ccncc1CN(Cc1ccccc1)CC(O)COc1ccc(C(F)(F)F)cc1 (centres unmarked) [compound 27] | ≤ 1
17 | Cc1ccccc1CN(Cc1cccnc1)C(=O)CCOc1ccc(C(F)(F)F)cc1 [compound 64] | 1 to 10
18 | FC(F)(F)c1ccc(OCC2(CN(Cc3cccnc3)Cc3ccccc3Cl)CC2)cc1 [compound 142] | ≤ 1
19 | [2H]C1(c2cncs2)c2ccccc2CCN1CC(O)COc1ccc(C(F)(F)F)cc1 (centres unmarked) [compound 94] | 1 to 10
20 | Cc1ccccc1CN(CC(O)COc1ccc(C(F)(F)F)cc1)C(=O)c1cc[nH]n1 (centres unmarked) [compound 75] | 1 to 10

Row | SMILES | EC (30% increase) [µM]
21 | Cc1ccc2c(c1)CC(c1nccn1C)N(CC(O)COc1ccc(C(F)(F)F)cc1)C2 (centres unmarked) [compound 189] | > 10
22 | Cc1ccccc1CN(CC(O)COc1ccc(C(F)(F)F)cc1)C(=O)c1cnco1 (centres unmarked) [compound 79] | 1 to 10
23 | CC(=O)OC(COc1ccc(C(F)(F)F)cc1)C(=O)N(Cc1cncs1)Cc1ccccc1Cl (centres unmarked) [compound 126] | > 10
24 | OC(COc1ccc(C(F)(F)F)cc1)CN1Cc2ccccc2CC1c1cncs1 (centres unmarked) [compound 98] | 1 to 10
25 | O[C@H](COc1ccc(C(F)(F)F)cc1)CN1CCc2ccccc2[C@@H]1c1ccccc1 [compound 113] | 1 to 10
26 | OC(COc1ccc(C(F)(F)F)cc1)CN1Cc2ccccc2C1c1ccccc1 (centres unmarked) [compound 22] | 1 to 10
27 | Cn1cncc1CN(CCOc1ccc(C(F)(F)F)cc1)Cc1ccccc1Cl [compound 159] | ≤ 1
28 | Cn1ccnc1C1Cc2ccccc2CN1CCCOc1ccc(C(F)(F)F)cc1 (centres unmarked) [compound 175] | ≤ 1
29 | CC(C)(COc1ccc(C(F)(F)F)cc1)CN(Cc1cccnc1)Cc1ccccc1C(F)(F)F [compound 197] | ≤ 1
30 | CC(C)(COc1cnc(C(F)(F)F)nc1)CN(Cc1cccnc1)Cc1ccccc1C(F)(F)F [compound 196] | 1 to 10
31 | O[C@H](COc1ccc(C(F)(F)F)cc1)CN(Cc1ccccc1)Cc1ccccc1 [compound 2] | 1 to 10
32 | OCC1c2ccccc2CCN1CCCOc1ccc(C(F)(F)F)cc1 (centres unmarked) [compound 188] | ≤ 1
33 | Cc1ccccc1CN(Cc1ncc[nH]1)CC(O)COc1ccc(C(F)(F)F)cc1 (centres unmarked) [compound 36] | ≤ 1
34 | Cn1cncc1C(=O)N(Cc1ccccc1F)CC(O)COc1ccc(C(F)(F)F)cc1 (centres unmarked) [compound 153] | 1 to 10
35 | Cc1ccccc1CN(CC(O)COc1ccc(C(F)(F)F)cc1)S(=O)(=O)c1cccnc1 (centres unmarked) [compound 68] | ≤ 1
36 | O[C@@H](COc1ccc(C(F)(F)F)cc1)CN(Cc1ccccc1)Cc1ccccc1 [compound 1] | 1 to 10
37 | Cn1cncc1C(=O)N(Cc1ccccc1Cl)CC(C)(C)COc1ccc(C(F)(F)F)cc1 [compound 194] | ≤ 1
38 | CC(C)(COc1ccc(C(F)(F)F)cc1)CN(Cc1cccnc1)Cc1ccccc1F [compound 185] | ≤ 1
39 | Cc1ccc(C(=O)N(Cc2ccccc2C)CC(O)COc2ccc(C(F)(F)F)cc2)cc1 (centres unmarked) [compound 67] | ≤ 1
40 | Cc1ncccc1CN(Cc1cccnc1C)CC(O)COc1ccc(C(F)(F)F)cc1 (centres unmarked) [compound 30] | 1 to 10

Row | SMILES | EC (30% increase) [µM]
41 | Cc1ccccc1CN(CC(O)COc1ccc(C(F)(F)F)cc1)C(C)c1cncs1 (centres unmarked) [compound 176] | 1 to 10
42 | FC(F)(F)c1ccc(OCCN(Cc2cccnc2)Cc2ccccc2Cl)cc1 [compound 155] | ≤ 1
43 | Cc1ccccc1CN(CCOc1ccc(C(F)(F)F)cc1)Cc1cccnc1 [compound 154] | ≤ 1
44 | Cc1ccccc1CN(CC(O)COc1ccc(C(F)(F)F)cc1)C(=O)c1ccccc1 (centres unmarked) [compound 66] | ≤ 1
45 | FC(F)(F)c1ccc(OCCN(Cc2cncs2)Cc2ccccc2Cl)cc1 [compound 172] | ≤ 1
46 | Cn1cncc1C(=O)N(Cc1ccccc1Cl)CC(O)COc1ccc(C(F)(F)F)cc1 (centres unmarked) [compound 108] | ≤ 1
47 | Cc1ccccc1CN(Cc1cnccc1C(F)(F)F)CC(O)COc1ccccc1 (centres unmarked) [compound 87] | 1 to 10
48 | OC(COc1ccc(C(F)(F)F)cc1)CN1Cc2ccccc2CC1c1cccnc1 (centres unmarked) [compound 56] | ≤ 1
49 | Cc1ccccc1CN(Cc1ccccc1C)CC(O)COc1ccc(C(F)(F)F)cc1 (centres unmarked) [compound 4] | ≤ 1
50 | FC(F)(F)c1ccc(OCCCN2Cc3ccccc3CC2c2cncs2)cc1 (centres unmarked) [compound 124] | 1 to 10
51 | Cc1ccccc1CN(Cc1cccnc1)CC(C)(C)COc1ccc(C(F)(F)F)cc1 [compound 121] | ≤ 1
52 | Cc1ccccc1CN(CC(O)COc1ccc(C(F)(F)F)cc1)C(=O)c1cn(C)cn1 (centres unmarked) [compound 80] | 1 to 10
53 | Cc1ccncc1CN(Cc1cnccc1C)CC(O)COc1ccc(C(F)(F)F)cc1 (centres unmarked) [compound 33] | 1 to 10
54 | Cc1ccccc1CN(CC(O)COc1ccc(C(F)(F)F)cc1)C(C)c1nccn1C (centres unmarked) [compound 162] | > 10
55 | Cc1ccccc1CN(CCCOc1cnc(C(F)(F)F)nc1)Cc1cccnc1 [compound 169] | ≤ 1
56 | Cc1ccccc1CN(CC(O)COc1ccc(C(F)(F)F)cc1)C(=O)c1cscn1 (centres unmarked) [compound 85] | 1 to 10
57 | Cn1cncc1C(=O)N(Cc1ccccc1Cl)CC(C)(O)COc1ccc(C(F)(F)F)cc1 (centres unmarked) [compound 201] | 1 to 10
58 | Cn1ccnc1CN(CCOc1ccc(C(F)(F)F)cc1)Cc1ccccc1F [compound 158] | ≤ 1
59 | Cc1ccccc1CN(CC(O)COc1ccc(C(F)(F)F)cc1)C(=O)c1cocn1 (centres unmarked) [compound 78] | ≤ 1
